Assay results from publication PMC5686756, “IKKγ-Mimetic Peptides Block the Resistance to Apoptosis Associated with Kaposi's Sarcoma-Associated Herpesvirus Infection” (Journal of Virology, 2017).
Positions of bridges follow the written chain, without caps; N, C: chain ends. Non-standard residues stand in square brackets, D forms with d. Residues, ends and D or L forms follow the SMILES beside them. S5 = C=CCCC[C@](C)(N)C(=O)O

How the values were obtained:
BC3 cells = type: cell-based, human; settings: for BC3 cell death, agent individually: TNF-α or ETO alone
Protocol: (§1) Given their profound impact on NF-κB activation, we next assessed whether IKKγ-mimetic peptides could sensitize BC3 cells to TNF-α and ETO and thus stimulate cell death. To investigate this in cellulo, BC3 cells were transduced with the GST-IKKγ peptide vector prior to treatment with TNF-α or ETO, and after 24 h, their viabilities were assessed. As a control, similar trials were conducted but with GST-IKKγDM, which harbors the same peptide containing the F238R D242R IKKγ double mutations previously shown to impair ks-vFLIP binding and consequently NF-κB activation ([27]). […] We also determined whether spIKKγ could have a similar effect. Owing to the presence of the aliphatic linker and overall positive charge (+0.1), we reasoned that spIKKγ was likely to be cell permeable based on studies involving a diverse range of unrelated stapled peptides ([28][–][32]). […] The effects of SPIKKγ were also investigated on BCP-1 cells, an additional PEL cell line.
Lentiviral vectors expressing GST or GST fusion peptides together with green fluorescent protein (GFP), CherryFP, WT vFLIP, or vFLIPA57L (a mutant which fails to bind IKKγ) were produced as previously described ([19]). […] In each case, lentiviral vector doses were used to ensure that over 95% of cells were positive for the relevant fluorescent protein. […]
(§2) The transfected cells, the human B cell lines BC3, BCP-1, and DG75 (a […] negative for KSHV and Epstein-Barr virus [EBV]) were treated with human TNF-α (PeproTech or Alomone Labs), ETO (Sigma), spIKKγ (encompassing IKKγ residues 230 to 248; see Fig. 3 for structure), or combinations of spIKKγ with either TNF-α or ETO. Cell survival was determined after 24 and 48 h by trypan blue staining and counting with a hemocytometer. Cell viability is expressed as a percentage of the number of viable cells per culture at the start of each experiment. […] Significance difference was calculated by two-way analysis of variance (ANOVA) with Fisher's least significant difference (LSD) posttest.

DG75 cells = experiment: Cell viability assay (trypan blue), DG75 cells; type: cell-based, human
Protocol: as §1
BC3, BCP-1, and DG75 cells were purchased for this study from the American Type Culture Collection (ATCC). They were verified as human B cell lines by surface staining for human Ig.
as §2

Jurkat cells = experiment: Cell viability assay (trypan blue), Jurkat cells; type: cell-based, human; settings: for rescue of Jurkat cell survival by WT ks-vFLIP: FADD/ATG3 siRNA Jurkat cells overexpressing WT ks-vFLIP; for protection by ks-vFLIP, IKKγ-null cells: Jurkat cells null for IKKγ; for protection by A57L ks-vFLIP mutant against induced apoptosis: Jurkat cells with A57L ks-vFLIP; for Jurkat cell survival, FADD or ATG3 silenced or IKKγ null: no ks-vFLIP rescue, FADD siRNA, ATG3 siRNA
From the text: Although it has been established that dysregulated activation of the canonical NF-κB pathway by ks-vFLIP renders mouse embryonic fibroblasts resistant to apoptosis induced by TNF-α ([12]), we sought to ascertain whether ks-vFLIP expression also prevents cell death induced by ETO. Unlike TNF-α, which instigates death receptor signaling, ETO, a topoisomerase II inhibitor, initiates cell death through the generation of DNA double-strand breaks ([20]). […] We next investigated the potential involvement of death-inducing signaling complex (DISC) formation and autophagy since ks-vFLIP has been cited (somewhat controversially) to interact with procaspase 8, an […] whose activation requires the adaptor protein FADD ([21]), and to physically associate with the ubiquitin-like conjugating enzyme ATG3, which is essential for the formation of autophagosomes ([11]). Viability assays were therefore conducted using Jurkat cells in which FADD and ATG3 were silenced (using small interfering RNA [siRNA]) together with those null for IKKγ in the presence of both ETO and TNF-α (Fig. 1C and D).
Lentiviral vectors expressing GST or GST fusion peptides together with green fluorescent protein (GFP), CherryFP, WT vFLIP, or vFLIPA57L (a mutant which fails to bind IKKγ) were produced as previously described ([19]). […] In each case, lentiviral vector doses were used to ensure that over 95% of cells were positive for the relevant fluorescent protein. The anti-FADD antibody used for immunoblots was purchased from BD Biosciences, and those for anti-ATG3 and anti-glyceraldehyde-3-phosphate dehydrogenase (anti-GAPDH) were from Cell Signaling Technology. Jurkat cells and their IKKγ-null derivatives were obtained from Alain Israel, Institute Pasteur, and verified as human T cells by surface CD3 staining.
as §2

GB1–ks-vFLIP = target: T1, GB1–ks-vFLIP (Human herpesvirus 8 type P, UniProt F5HEZ4); experiment: biochemical; type: binding, Kaposi's sarcoma-associated herpesvirus
T1 construct: ks-vFLIP (residues 1 to 188) was PCR cloned into the EcoRI and XhoI sites of GB1-pBR22b; 6His (C); made in house; host or cells: E. coli BL21(DE3)
Protocol: We next sought to assess the affinity of spIKKγ for vFLIP using isothermal calorimetry (ITC).
Isothermal calorimetry (ITC) experiments were performed using a Microcal VP-ITC micocalorimeter (MicroCal). For all binding reactions, syringe concentrations varied between ∼85 and 100 μM for IKKγ(150–272) and cell concentrations between ∼8 and 10 μM for GB1-vFLIP. Titrations consisted of an initial 2-μl injection, followed by 20 10-μl injections with stirring at 300 rpm. In competition assays, GB1–ks-vFLIP was first incubated with 20 μM spIKKγ and DMSO to 4% prior to loading into the cell and titration with IKKγ(150–272). All ITC binding experiments were performed in deionized water at 25°C owing to the buffer constraints of spIKKγ, GB1–ks-vFLIP, and IKKγ(150–272), where GB1–ks-vFLIP and IKKγ(150–272) were buffer matched by overnight dialysis, followed by the addition of 4% DMSO to each. […] Following collection, all data were analyzed using ORIGIN 70 software and fitted to a one-site binding model with each experiment performed at least in triplicate.

Row | Compound | BC3 cell death, agent individually (BC3 cells) | DG75 viability, control experiment (DG75 cells; Fig. 5E, spIKKγ or TNF-α alone or in combination, 24 and 48 h) | rescue of Jurkat cell survival by WT ks-vFLIP (Jurkat cells) | protection by ks-vFLIP, IKKγ-null cells (Jurkat cells) | protection by A57L ks-vFLIP mutant against induced apoptosis (Jurkat cells) | Jurkat cell survival, trend versus ETO (Jurkat cells; TNF-α, various concentrations, with and without ks-vFLIP) | Jurkat cell survival, FADD or ATG3 silenced or IKKγ null (Jurkat cells) | DG75 viability at 48 h, ETO (or ETO plus spIKKγ) (DG75 cells; Fig. 5E, 48 h) | DG75 sensitivity to ETO (DG75 cells; after 48 h) | rescue by WT ks-vFLIP, ATG3 siRNA (Jurkat cells; ATG3 siRNA Jurkat cells, ETO) | Jurkat cell survival, null for ks-vFLIP (Jurkat cells; ETO 50 μM, cells null for ks-vFLIP) | Jurkat cell survival with ks-vFLIP (Jurkat cells; ETO 50 μM, ks-vFLIP-expressing cells) | solubility in aqueous solutions | IC50 (BC3 cells; spIKKγ alone, after 24 h, trypan blue, triplicate independent experiments, read-out: 50% inhibitory concentration (IC50), BC3 viability) [µM] | Ki (GB1–ks-vFLIP) [µM]
1 | TNF-α | negligible effects individually | failed to have a negative impact | could to a large extent be rescued | completely refractory to the protective effects of ks-vFLIP | could not protect cells against apoptosis | closely mirror the trend | severely compromised in all three scenarios |  |  |  |  |  |  |  | 
2 | COc1cc([C@@H]2c3cc4c(cc3[C@@H](O[C@@H]3O[C@@H]5CO[C@@H](C)O[C@H]5[C@H](O)[C@H]3O)[C@H]3COC(=O)[C@H]23)OCO4)cc(OC)c1O [ETO, etoposide] | negligible effects individually |  | could to a large extent be rescued | completely refractory to the protective effects of ks-vFLIP | could not protect cells against apoptosis |  | severely compromised in all three scenarios | significant reduction in viability | Considerable sensitivity | to a lesser degree | severely compromised | only moderately reduced |  |  | 
3 | CC[C@H](C)[C@H](NC(=O)[C@H](Cc1c[nH]cn1)NC(=O)[C@H](CC(N)=O)NC(=O)[C@H](CC(=O)O)NC(=O)[C@H](Cc1ccc(O)cc1)NC(=O)[C@]1(C)CCCC=CCCC[C@](C)(NC(=O)[C@H](Cc2c[nH]cn2)NC(=O)[C@H](Cc2ccc(O)cc2)NC(=O)[C@H](C)NC(=O)[C@@H](NC(=O)[C@H](CCC(N)=O)NC(=O)[C@H](CC(C)C)NC(C)=O)C(C)C)C(=O)N[C@@H](CC(C)C)C(=O)N[C@@H](Cc2ccccc2)C(=O)N[C@@H](CCC(N)=O)C(=O)N1)C(=O)N[C@@H](CCCCN)C(=O)N[C@@H](CO)C(=O)N[C@@H](CO)C(=O)N[C@@H](CS)C(N)=O [spIKKγ] (Ac-LQVAYH[S5]LFQ[S5]YDNHIKSSC-NH2; staple 7-11) |  |  |  |  |  |  |  |  |  |  |  |  | poor solubility | ~75 | 0.257
